What was measured:
EcFtsZ = EcFtsZ (Escherichia coli, UniProt P0A9A6); assay: GTPase assay, malachite green phosphate detection; format: biochemical
SaFtsZ = SaFtsZ (Staphylococcus aureus, UniProt P0A031); assay: GTPase assay, malachite green phosphate detection; format: biochemical
BsFtsZ = target: T1, BsFtsZ (Bacillus subtilis, UniProt P17865); assay: fluorescence anisotropy titration with FtsZ; format: binding
T1 sequence (P17865 1-382): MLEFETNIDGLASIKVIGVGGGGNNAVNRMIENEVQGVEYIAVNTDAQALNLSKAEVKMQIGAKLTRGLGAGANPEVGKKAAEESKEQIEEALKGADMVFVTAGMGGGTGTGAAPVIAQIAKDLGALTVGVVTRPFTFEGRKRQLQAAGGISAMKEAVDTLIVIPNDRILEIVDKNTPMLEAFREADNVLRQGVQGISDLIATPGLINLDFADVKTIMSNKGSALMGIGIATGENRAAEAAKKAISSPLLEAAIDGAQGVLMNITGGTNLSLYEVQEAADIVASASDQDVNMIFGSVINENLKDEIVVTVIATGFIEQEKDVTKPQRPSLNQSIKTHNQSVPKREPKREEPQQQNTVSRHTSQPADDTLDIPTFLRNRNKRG

Chain of SaFtsZ (P0A031 whole entry): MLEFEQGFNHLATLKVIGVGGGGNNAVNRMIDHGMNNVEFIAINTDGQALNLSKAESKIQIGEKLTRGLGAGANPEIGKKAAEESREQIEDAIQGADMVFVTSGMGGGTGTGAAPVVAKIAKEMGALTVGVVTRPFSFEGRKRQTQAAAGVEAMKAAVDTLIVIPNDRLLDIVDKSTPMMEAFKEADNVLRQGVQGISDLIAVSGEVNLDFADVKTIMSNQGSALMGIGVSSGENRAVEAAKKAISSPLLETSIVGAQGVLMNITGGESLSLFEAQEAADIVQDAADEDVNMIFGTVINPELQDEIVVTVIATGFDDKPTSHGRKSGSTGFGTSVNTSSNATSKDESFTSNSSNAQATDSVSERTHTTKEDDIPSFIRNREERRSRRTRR
Chain of EcFtsZ (P0A9A6 whole entry): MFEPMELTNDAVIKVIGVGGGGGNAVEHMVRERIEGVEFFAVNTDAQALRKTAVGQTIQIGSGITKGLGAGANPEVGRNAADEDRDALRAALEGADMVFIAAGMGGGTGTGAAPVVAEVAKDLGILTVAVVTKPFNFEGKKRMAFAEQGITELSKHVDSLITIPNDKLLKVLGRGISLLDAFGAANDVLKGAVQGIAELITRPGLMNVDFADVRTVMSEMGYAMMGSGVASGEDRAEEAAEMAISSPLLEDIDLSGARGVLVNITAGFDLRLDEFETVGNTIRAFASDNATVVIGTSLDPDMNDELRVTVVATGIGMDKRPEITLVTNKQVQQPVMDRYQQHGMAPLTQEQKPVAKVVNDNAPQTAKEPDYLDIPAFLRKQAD

Substance	IC50 (EcFtsZ)	IC50 (SaFtsZ)	Ka (BsFtsZ)
hemi-chrysophaentin [compound 2]	37 ± 7 µM	38 ± 9 µM	
mant-GTP			(9.9 ± 0.5) × 10^5 (Ka) M^−1

Reference: paper PMC3768135 (Bioorganic & medicinal chemistry, 2013)
